Tested on: eye
Test: Primary eye irritation, protocol FHSLA 16 CFR 1500.42
Format: in vivo
Conditions: products tested at 25% actives
Description: Eye irritation is a major concern in the formulation of personal care products, particularly when working with quats. Primary eye irritation was tested using the protocol outlined in FHSLA 16 CFR 1500.42. The products were tested at 25% actives.

Row | Compound | Description | Score
1 | CCCCCCCCCCCCCCCCCC[N+](C)(C)Cc1ccccc1.[Cl-] [Stearalkonium Chloride] | Severely Irritating | 116.5
2 | CCCCCCCCCCCCCCCCCC[N+](C)(C)C.[Cl-] [Stearyl trimethyl ammonium chloride] | Severely Irritating | 106.0

Reference: US20010000523A1, “Carboxylated polymers complexes” (priority 1999, published 2001)
